Like-named read-outs stand apart in the source and are kept apart here.
Assays:
[1] = target: T1, human somatostatin receptor subtype 5 (Homo sapiens, UniProt P35346); test: cAMP assay for SST5R (inhibition of cAMP in CHO-K1 cells); type: cell-based; conditions: for EC50: inhibition of cAMP via human SST5 receptor, read-out: SST5 potency; for Fold selectivity for SST5 vs SST2: class symbols, SST5 receptor over SST2 receptor
T1 construct: expressed in transfected cells
Outline: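 CHO-K1 cells stably expressing human SSTR5 were treated 20 min at 37 °C with compounds plus 1.6 μM NKH477 in HBSS, 0.5 mM HEPES pH 7.4, 0.1% BSA, 0.2 mM IBMX. Lysate cAMP measured by HTRF against a standard curve; EC50 from cAMP-versus-concentration plots.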

[2] = target: T2, human somatostatin receptor subtype 2 (Homo sapiens, UniProt P30874); test: cAMP assay for SST2R (inhibition of cAMP in CHO-K1 cells); type: cell-based; conditions: Table B; inhibition of cAMP via human SST2 receptor; read-out: SST2 potency
T2 construct: expressed in transfected cells
T2 sequence (P30874 whole entry): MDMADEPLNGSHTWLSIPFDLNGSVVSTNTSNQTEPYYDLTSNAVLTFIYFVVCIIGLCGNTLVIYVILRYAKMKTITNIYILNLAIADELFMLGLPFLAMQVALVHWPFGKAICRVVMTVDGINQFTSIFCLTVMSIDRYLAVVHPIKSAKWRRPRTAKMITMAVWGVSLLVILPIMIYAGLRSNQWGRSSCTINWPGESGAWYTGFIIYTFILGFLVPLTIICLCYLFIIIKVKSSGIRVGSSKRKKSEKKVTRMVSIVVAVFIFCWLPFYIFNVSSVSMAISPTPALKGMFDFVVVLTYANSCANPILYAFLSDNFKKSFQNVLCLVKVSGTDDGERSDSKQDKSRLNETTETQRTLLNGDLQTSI
Description: General overview: All five SSTR subtypes are Gi coupled G-protein coupled receptors (GPCRs) that lead to decreases in intracellular cyclic AMP (cAMP) when activated by an agonist. Therefore, measurement of intracellular cAMP levels can be used to assess whether compounds of the invention are agonists of SSTR subtypes (John Kelly, Troy Stevens, W. Joseph Thompson, and Roland Seifert, Current Protocols in Pharmacology, 2005, 2.2.1-2.2). One example of an intracellular cAMP assay is described below.
cAMP Assay Protocol for SST2R:
Four days prior to the assay, 5,000 Chinese hamster ovary cells (CHO-K1, ATCC #CCL-61) stably expressing the human somatostatin receptor subtype 2 are plated in each well of a 96-well tissue culture-treated plate in Ham's F12 growth media (ThermoFisher #10-080-CM) supplemented with 10% donor bovine serum (Gemini Bio-Products #100-506), 100 U/mL penicillin; 100 μg/mL streptomycin; 2 mM L-glutamine (Gemini Bio-Products #400-110) and 0.2 mg/mL hygromycin B (GoldBio #31282-04-9). The cells are cultured at 37° C., 5% CO2 and 95% humidity. On the day of the assay, the media is aspirated and the cells are treated with 50 μL of 1.6 μM NKH477 (Sigma #N3290) plus various dilutions of compounds of the invention in assay buffer [1× Hank's Balanced Salt Solution (ThermoFisher #SH3058802), 0.5 mM HEPES pH 7.4, 0.1% bovine serum albumin, 0.2 mM 3-Isobutyl-1-methylxanthine (IBMX, VWR #200002-790)]. The cells are incubated for 20 minutes at 37° C. […] The cells are treated with 50 μL of lysis buffer (HRTF cAMP kit, Cisbio). The lysate is transferred to 384-well plates and cAMP detection and visualization antibodies are added and incubated for 1-24 hours at room temperature. The time-resolved fluorescent signal is read with a Tecan M1000Pro multiplate reader. The intracellular cAMP concentrations are calculated by regression to a standard curve and are plotted vs. the concentration of the compounds of the invention and the EC50 of the compounds are calculated using standard methods. All data manipulations are in GraphPad Prism v6 or v7.

T1 sequence (P35346 whole entry): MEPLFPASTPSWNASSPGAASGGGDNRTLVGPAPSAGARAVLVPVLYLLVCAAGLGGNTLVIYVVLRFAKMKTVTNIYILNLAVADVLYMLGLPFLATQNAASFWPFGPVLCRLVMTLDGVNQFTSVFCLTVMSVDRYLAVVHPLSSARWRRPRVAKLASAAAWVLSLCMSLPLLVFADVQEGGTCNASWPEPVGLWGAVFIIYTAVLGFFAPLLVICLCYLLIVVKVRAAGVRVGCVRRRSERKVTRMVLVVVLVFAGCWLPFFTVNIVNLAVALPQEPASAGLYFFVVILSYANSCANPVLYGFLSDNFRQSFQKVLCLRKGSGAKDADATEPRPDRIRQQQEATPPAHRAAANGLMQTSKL

| Compound | EC50 ([1]; Table A) [nM] | Fold selectivity for SST5 vs SST2 ([1]; Table B) | EC50 ([1]; Table B) [nM] | EC50 [2] [nM] |
| --- | --- | --- | --- | --- |
| 4-[(3S)-3-amino-3-methylpyrrolidin-1-yl]-5-(3-cyano-5-methoxyphenyl)-N-[(1S)-1-cyclopropylethyl]-6-methylpyridine-3-carboxamide [1-280] | < 10 | +++ (+++=>500) | < 10 | 100 to 1000 |
| Cc1cc(C)cc(NC(=O)c2cncc(-c3cc(C)cc(C)c3)c2N2CC[C@@H](N)C2)c1 (single isomer, unassigned) [1-2] | 10 to 100 | – | 10 to 100 | < 10 |
| Cc1cc(C)cc(NC(=O)c2cncc(-c3cc(C)cc(C)c3)c2N2CC[C@H](N)C2)c1 [1-1, 4-[(3S)-3-aminopyrrolidin-1-yl]-N,5-bis(3,5-dimethylphenyl)pyridine-3-carboxamide] | < 10 | ++ (++=100 to 499) | < 10 | 10 to 100 |
| Cc1cc(C)cc(-c2cncc(C(=O)Nc3cc(F)cc(Cl)c3)c2N2CC[C@H](N)C2)c1 [1-3, 4-[(3 S)-3-aminopyrrolidin-1-yl]-N-(3-chloro-5-fluorophenyl)-5-(3,5-dimethylphenyl)pyridine-3-carboxamide] | < 10 | + (+=10 to 99) | < 10 | 100 to 1000 |
| C[C@]1(N)CCN(c2c(C(=O)Nc3ccccc3F)cncc2-c2ccc(F)c(C#N)c2)C1 [1-4, 4-[(3S)-3-amino-3-methylpyrrolidin-1-yl]-5-(3-cyano-4-fluorophenyl)-N-(2-fluorophenyl)pyridine-3-carboxamide] | < 10 | ++ (++=100 to 499) | < 10 | 100 to 1000 |
| Cc1cccc(NC(=O)c2cncc(-c3ccnc(C#N)c3)c2N2CC[C@](C)(N)C2)c1 [1-5, 4-[(3S)-3-amino-3-methylpyrrolidin-1-yl]-2′-cyano-N-(3-methylphenyl)-[3,4′-bipyridine]-5-carboxamide] | < 10 | +++ (+++=>500) | < 10 | 100 to 1000 |
| Cc1cc(C)cc(NC(=O)c2cncc(-c3ccnc(C)c3)c2N2CC[C@](C)(N)C2)c1 [1-6, 4-[(3S)-3-amino-3-methylpyrrolidin-1-yl]-N-(3,5-dimethylphenyl)-2′-methyl-[3,4′-bipyridine]-5-carboxamide] | < 10 | ++ (++=100 to 499) | < 10 | 10 to 100 |
| C[C@]1(N)CCN(c2c(C(=O)NC3CCC(F)(F)CC3)cncc2-c2cccc(C#N)c2)C1 [1-10, 4-[(3S)-3-amino-3-methylpyrrolidin-1-yl]-5-(3-cyanophenyl)-N-(4,4-difluorocyclohexyl)pyridine-3-carboxamide] | 10 to 100 | ++ (++=100 to 499) | 10 to 100 | > 1000 |
| Cc1cc(C)cc(-c2cncc(C(=O)NC3CCCC(C)(C)C3)c2N2CC[C@](C)(N)C2)c1 (stereo partly drawn) [1-11, 4-[(3S)-3-amino-3-methylpyrrolidin-1-yl]-N-(3,3-dimethylcyclohexyl)-5-(3,5-dimethylphenyl)pyridine-3-carboxamide] | < 10 | +++ (+++=>500) | < 10 | > 1000 |
| N-(adamantan-1-yl)-3-[(3S)-3-amino-3-methylpyrrolidin-1-yl]-2-(3,5-difluorophenyl)pyridine-4-carboxamide [3-7] | 10 to 100 | – | – | – |

Results, then the compound that gave them:

| EC50 ([1]; Table A) [nM] | Fold selectivity for SST5 vs SST2 ([1]; Table B) | EC50 ([1]; Table B) [nM] | EC50 [2] [nM] | Compound |
| --- | --- | --- | --- | --- |
| 10 to 100 | – | – | – | Cc1cccc2[nH]c(-c3cncc(C(=O)N4CCC5(CC5)C4)c3N3CC[C@](C)(N)C3)nc12 [2-39, (3S)-1-(3-{5-azaspiro[2.4]heptane-5-carbonyl}-5-(4-methyl-1H-1,3-benzodiazol-2-yl)pyridin-4-yl)-3-methylpyrrolidin-3-amine] |
| < 10 | – | – | – | CC[C@H](NC(=O)c1cncc(-c2nc3c(C)cccc3[nH]2)c1N1CC[C@](C)(N)C1)C(F)(F)F [2-40, 4-[(3S)-3-amino-3-methylpyrrolidin-1-yl]-5-(4-methyl-1H-1,3-benzodiazol-2-yl)-N-[(2S)-1,1,1-trifluorobutan-2-yl]pyridine-3-carboxamide] |
| 10 to 100 | – | – | – | Cc1cccc2[nH]c(-c3cncc(C(=O)N4CCC(C(F)(F)F)C4)c3N3CC[C@](C)(N)C3)nc12 (stereo partly drawn) [2-44, (3S)-3-methyl-1-[3-(4-methyl-1H-1,3-benzodiazol-2-yl)-5-[3-(trifluoromethyl)pyrrolidine-1-carbonyl]pyridin-4-yl]pyrrolidin-3-amine] |
| 10 to 100 | – | – | – | C[C@H](NC(=O)c1ccnc(-c2cc(F)cc(F)c2)c1N1CC[C@](C)(N)C1)C1CC1 [3-1, 3-[(3S)-3-amino-3-methylpyrrolidin-1-yl]-N-[(1S)-1-cyclopropylethyl]-2-(3,5-difluorophenyl)pyridine-4-carboxamide] |
| 100 to 1000 | – | – | – | C[C@H](NC(=O)c1ccnc(-c2cc(F)cc(F)c2)c1N1CC[C@](C)(N)C1)c1ccccc1 [3-3, 3-[(3S)-3-amino-3-methylpyrrolidin-1-yl]-2-(3,5-difluorophenyl)-N-[(1S)-1-phenylethyl]pyridine-4-carboxamide] |
| < 10 | – | – | – | C[C@]1(N)CCN(c2c(C(=O)NC(C3CC3)C3CC3)ccnc2-c2cc(F)cc(F)c2)C1 [3-4, 3-[(3S)-3-amino-3-methylpyrrolidin-1-yl]-N-(dicyclopropylmethyl)-2-(3,5-difluorophenyl)pyridine-4-carboxamide] |
| 10 to 100 | – | – | – | C[C@]1(N)CCN(c2c(C(=O)NC34CCC(CC3)C4)ccnc2-c2cc(F)cc(F)c2)C1 [3-5, 3-[(3S)-3-amino-3-methylpyrrolidin-1-yl]-N-{bicyclo[2.2.1]heptan-1-yl}-2-(3,5-difluorophenyl)pyridine-4-carboxamide] |
| 10 to 100 | – | – | – | C[C@]1(N)CCN(c2c(C(=O)NC3CCCC3)ccnc2-c2cc(F)cc(F)c2)C1 [3-8, 3-[(3S)-3-amino-3-methylpyrrolidin-1-yl]-N-cyclopentyl-2-(3,5-difluorophenyl)pyridine-4-carboxamide] |
| 10 to 100 | – | – | – | Cc1cnc(C(=O)N[C@@H](C)C2CC2)c(N2CC[C@](C)(N)C2)c1-c1cc(F)cc(F)c1 [4-2, 3-[(3S)-3-amino-3-methylpyrrolidin-1-yl]-N-[(1S)-1-cyclopropylethyl]-4-(3,5-difluorophenyl)-5-methylpyridine-2-carboxamide] |
| < 10 | – | – | – | C[C@H](NC(=O)c1ncc(C#N)c(-c2cc(F)cc(F)c2)c1N1CC[C@](C)(N)C1)C1CC1 [4-3, 3-[(3S)-3-amino-3-methylpyrrolidin-1-yl]-5-cyano-N-[(1S)-1-cyclopropylethyl]-4-(3,5-difluorophenyl)pyridine-2-carboxamide] |
| 10 to 100 | – | – | – | COC(=O)c1cnc(C(=O)N[C@@H](C)C2CC2)c(N2CC[C@](C)(N)C2)c1-c1cc(F)cc(F)c1 [4-4, methyl 5-[(3S)-3-amino-3-methylpyrrolidin-1-yl]-6-{[(1S)-1-cyclopropylethyl]carbamoyl}-4-(3,5-difluorophenyl)pyridine-3-carboxylate] |
| > 1000 | – | – | – | C[C@H](NC(=O)c1ncc(C(N)=O)c(-c2cc(F)cc(F)c2)c1N1CC[C@](C)(N)C1)C1CC1 [4-5, 3-[(3S)-3-amino-3-methylpyrrolidin-1-yl]-N2-[(1S)-1-cyclopropylethyl]-4-(3,5-difluorophenyl)pyridine-2,5-dicarboxamide] |
